Measurements taken from ChEMBL document CHEMBL1201862, “PubChem BioAssay data set” (2004).
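Results reflect a 48-hour exposure of cells in 96-well plates to compound at five concentrations. GI50 marks 50% less growth.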 Active and inactive are the calls of the source. Cut-off read from the data, not from the text of the source: active = GI50 up to about 1.1 µM and inactive = higher.

Experiments:
Assay in all cases: growth of human tumour cells (NCI), 48 h
[1] = system: Hs-578T
[2] = system: DU-145
[3] = system: PC-3
[4] = system: MDA-MB-435

Row | SMILES | GI50 [1] | GI50 [2] | GI50 [3] | GI50 [4]
1 | COC(=O)c1cc(/C=C/C(=O)Cc2ccccc2)cn1S(=O)(=O)c1ccccc1 | > 100 µM (inactive) | > 100 µM (inactive) | > 100 µM (inactive) | 
2 | C[C@@H]1S[C@H](c2c(Cl)cccc2Cl)N2Cc3ccccc3N=C12 | > 100 µM (inactive) | > 100 µM (inactive) | > 100 µM (inactive) | > 100 µM (inactive)
3 | COC(=O)C[C@H](COCc1ccccc1)NC(=O)C[C@H](COCc1ccccc1)NC(=O)C[C@H](COCc1ccccc1)NC(=O)OC(C)(C)C | 34.6 µM (inactive) | 23.3 µM (inactive) | 13.2 µM (inactive) | 32.8 µM (inactive)
4 | CC(C)C1C(=O)N(c2c(F)c(F)c(F)c(F)c2F)C(=S)N1CC[S+]([O-])c1ccccc1 (stereo not drawn) | 30.2 µM (inactive) | 20.7 µM (inactive) | 15.4 µM (inactive) | 17.5 µM (inactive)
5 | C[n+]1cn(-c2ccc([N+](=O)[O-])cn2)c2ccccc21 | > 100 µM (inactive) | > 100 µM (inactive) | > 100 µM (inactive) | > 100 µM (inactive)
6 | CC(=O)C1(Cc2cccc3ccccc23)S(=O)(=O)OCCOS1(=O)=O |  | 18.4 µM (inactive) | 14.2 µM (inactive) | 14.7 µM (inactive)
7 | CCCSc1cc(Cl)c(C)cc1S(=O)(=O)n1ccnc1OCCCN(C)C | > 100 µM (inactive) | > 100 µM (inactive) | > 100 µM (inactive) | > 100 µM (inactive)
8 | O=C(NCCN(CCNC(=O)c1cccc(=O)n1O)CCN(CCNC(=O)c1cccc(=O)n1O)CCNC(=O)c1cccc(=O)n1O)c1cccc(=O)n1O | > 100 µM (inactive) | > 100 µM (inactive) | > 100 µM (inactive) | > 100 µM (inactive)
9 | COc1c(/C=C/C=O)cc2c(c1OC)OCO2 | 55.8 µM (inactive) | 28.4 µM (inactive) | 34.5 µM (inactive) | 49.3 µM (inactive)
10 | O=C(NNC(=O)c1ccncc1)c1ccncc1 | > 100 µM (inactive) | > 100 µM (inactive) | > 100 µM (inactive) | > 100 µM (inactive)
11 | C/C(=N\Nc1nc2ccccc2[nH]1)c1ccc2ccccc2n1 | 10.8 µM (inactive) | 1.91 µM (inactive) | 1.44 µM (inactive) | 4.29 µM (inactive)
12 | Nc1nc(Cl)c(N)c(NC23CC4CC(CC(C4)C2)C3)n1 | 4.4 µM (inactive) | 2.22 µM (inactive) | 1.36 µM (inactive) | 1.41 µM (inactive)
13 | CP(C)(=S)P(C)(C)=S | > 100 µM (inactive) | > 100 µM (inactive) | > 100 µM (inactive) | 
14 | Cc1cc(NS(=O)(=O)c2ccc(Nc3c4ccccc4nc4ccc(C(=O)Nc5ccc(S(N)(=O)=O)cc5)cc34)cc2)no1 | > 100 µM (inactive) | > 100 µM (inactive) | > 100 µM (inactive) | > 100 µM (inactive)
15 | CSc1nc(=O)n(CCC#N)nc1SC | 27.6 µM (inactive) | 51.8 µM (inactive) | 66.5 µM (inactive) | 23.1 µM (inactive)
16 | COc1c2c(nc3ccccc13)-c1cc(C(CC(=O)OC(C)(C)C)C(=O)OC(C)C)c(CO)c(=O)n1C2 (stereo not drawn) | > 75.3 µM (inactive) | 22.2 µM (inactive) | > 86.1 µM (inactive) | > 94.2 µM (inactive)
17 | Cc1cccc(N(CCC#N)S(=O)(=O)c2ccccc2)c1 | > 100 µM (inactive) | > 100 µM (inactive) | > 100 µM (inactive) | > 100 µM (inactive)
18 | N#C/C(=C/C=C/c1ccco1)C(N)=O | > 10 µM (inactive) | > 10 µM (inactive) | > 10 µM (inactive) | > 10 µM (inactive)
19 | O=C1CCC[C@H]2O[C@@H](COC(=O)c3ccccc3)C[C@H]2O1 | > 100 µM (inactive) | > 100 µM (inactive) | > 100 µM (inactive) | > 100 µM (inactive)

Row | SMILES | GI50 [1] | GI50 [2] | GI50 [3] | GI50 [4]
20 | CC(=O)OC[C@@]12Cc3ccc(C)c(O)c3[C@]1(C)[C@@H](OC(C)=O)[C@]1(O)[C@H]([C@@H](OC(=O)c3ccccc3)[C@@H](C)[C@H]1OC(C)=O)[C@H]2OC(C)=O | > 50 µM (inactive) | > 50 µM (inactive) | > 50 µM (inactive) | > 50 µM (inactive)
21 | NC1=NCC(CN2CCCCC2)O1 (stereo not drawn) | > 100 µM (inactive) |  | > 100 µM (inactive) | > 100 µM (inactive)
22 | CC1CC(=O)N2CCCNC2=C1C#N (stereo not drawn) | > 100 µM (inactive) | > 100 µM (inactive) | > 100 µM (inactive) | > 100 µM (inactive)
23 | O=C(/C=C/c1ccc(-c2ccccc2)cc1)NCc1ccc(C(=O)NCCc2c[nH]c3ccccc23)cc1 | 38.5 µM (inactive) | > 100 µM (inactive) | 23.5 µM (inactive) | > 100 µM (inactive)
24 | O=C(CSCC(=O)N/N=C/c1ccncc1)N/N=C/c1ccncc1 | > 100 µM (inactive) | > 100 µM (inactive) | > 100 µM (inactive) | > 100 µM (inactive)
25 | Cc1ccc([S+]([O-])c2sccc2C=O)cc1 (stereo not drawn) | 24.4 µM (inactive) | 54.3 µM (inactive) | 34 µM (inactive) | 24.7 µM (inactive)
26 | COc1cc(OCCN(C)C)c2[nH]c(C(=O)N3CC(CCl)c4ccc(N)cc43)cc2c1 (stereo not drawn) | 0.361 µM (active) | 0.0142 µM (active) | 0.0241 µM (active) | 0.0475 µM (active)
27 | N#Cc1c(C#N)c(-c2ccccc2)n(Cc2ccccc2)c1N | 25.6 µM (inactive) | > 100 µM (inactive) | > 100 µM (inactive) | > 100 µM (inactive)
28 | COc1ccc(/C=C2\Sc3nnc(CNc4ccc(Cl)cc4)n3N=C2c2cc(F)c(Cl)cc2Cl)cc1OC | 51.2 µM (inactive) | 71.6 µM (inactive) | 67.1 µM (inactive) | 27.2 µM (inactive)
29 | CC(=O)OC1CC[C@@]2(C)C(=CC[C@@H]3[C@@H]2CC[C@]2(C)C(OC(C)=O)[C@H](n4ccnc4)C[C@@H]32)C1 (stereo partly drawn) | 47 µM (inactive) | 73.5 µM (inactive) | 16.2 µM (inactive) | 16.9 µM (inactive)
30 | CCN(CC)CCOC(NC(C)=O)(c1ccccc1)c1ccccc1 | > 100 µM (inactive) | > 100 µM (inactive) |  | > 100 µM (inactive)
31 | COc1cc(/C=C2\C[C@H]3[C@@H]4CC=C5C[C@@H](OC(C)=O)CC[C@]5(C)[C@H]4CC[C@]3(C)\C2=N\O)cc(OC)c1OC | 4.37 µM (inactive) | 4.42 µM (inactive) | 2.54 µM (inactive) | 3.82 µM (inactive)
32 | Cc1ccc(S(=O)(=O)NC(CO)C(=O)O)cc1 (stereo not drawn) | > 100 µM (inactive) | > 100 µM (inactive) | > 100 µM (inactive) | > 100 µM (inactive)
33 | Cc1ccc(C(=O)N/N=C(\N=N\c2ccccc2)c2ccc(N(CCC#N)CCC#N)cc2C)cc1 | 28.2 µM (inactive) | > 100 µM (inactive) | 67.9 µM (inactive) | 45.6 µM (inactive)
34 | C=C(C[C@@H](O)[C@H](C)NC(=O)OCc1ccccc1)C(=O)OC(C)(C)C | > 100 µM (inactive) | 45.7 µM (inactive) | > 100 µM (inactive) | 49.7 µM (inactive)
35 | CC1(C)C=Cc2c(cc3oc4ccc5c(c4c(=O)c3c2O)C=CC(C)(C)O5)O1 | > 100 µM (inactive) | > 100 µM (inactive) | > 100 µM (inactive) | > 100 µM (inactive)
36 | Nc1nc(Cl)cc(NC2(CO)CCC2)n1 | > 100 µM (inactive) | > 100 µM (inactive) | > 100 µM (inactive) | > 100 µM (inactive)
37 | COC1C(=O)CCC2(CO2)C1(O)C1(C)OC1CC=C(C)C (stereo not drawn) | 22.1 µM (inactive) | 19.5 µM (inactive) | 28.3 µM (inactive) | 24.5 µM (inactive)
